{"source": "ChEMBL document CHEMBL4017513", "about": "“Structure-Activity Relationships of Potent, Targeted Covalent Inhibitors That Abolish Both the Transamidation and GTP Binding Activities of Human Tissue Transglutaminase” (J Med Chem, 2017)", "key": {"[1]": {"biological_target": "T1, Protein-glutamine gamma-glutamyltransferase E (Homo sapiens) (UniProt Q08188)", "T1 sequence (whole entry)": "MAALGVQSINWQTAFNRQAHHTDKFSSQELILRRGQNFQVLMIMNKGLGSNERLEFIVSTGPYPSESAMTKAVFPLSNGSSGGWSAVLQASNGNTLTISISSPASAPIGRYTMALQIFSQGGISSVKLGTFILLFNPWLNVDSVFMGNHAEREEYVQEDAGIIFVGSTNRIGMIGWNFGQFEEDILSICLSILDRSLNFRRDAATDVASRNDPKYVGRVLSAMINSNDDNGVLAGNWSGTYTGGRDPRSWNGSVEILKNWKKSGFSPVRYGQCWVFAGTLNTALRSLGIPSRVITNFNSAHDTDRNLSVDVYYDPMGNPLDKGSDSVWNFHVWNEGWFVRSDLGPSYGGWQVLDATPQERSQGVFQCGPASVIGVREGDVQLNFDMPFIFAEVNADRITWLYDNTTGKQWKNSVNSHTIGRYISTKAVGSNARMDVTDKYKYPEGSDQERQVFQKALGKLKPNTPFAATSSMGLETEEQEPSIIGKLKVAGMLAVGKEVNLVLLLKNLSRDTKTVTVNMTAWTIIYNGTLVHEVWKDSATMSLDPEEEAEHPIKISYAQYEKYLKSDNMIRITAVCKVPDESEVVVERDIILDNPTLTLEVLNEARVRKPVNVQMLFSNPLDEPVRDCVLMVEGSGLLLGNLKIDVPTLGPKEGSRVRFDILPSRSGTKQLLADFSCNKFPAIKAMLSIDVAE", "assay": "Inactivation of activated human TG3 assessed as rate constant of enzyme inactivation using FRET- quenched A101 as substrate by fluorescence assay"}, "[2]": {"biological_target": "T2, Protein-glutamine gamma-glutamyltransferase (Homo sapiens, UniProt P21980)", "T2 sequence (P21980 whole entry)": "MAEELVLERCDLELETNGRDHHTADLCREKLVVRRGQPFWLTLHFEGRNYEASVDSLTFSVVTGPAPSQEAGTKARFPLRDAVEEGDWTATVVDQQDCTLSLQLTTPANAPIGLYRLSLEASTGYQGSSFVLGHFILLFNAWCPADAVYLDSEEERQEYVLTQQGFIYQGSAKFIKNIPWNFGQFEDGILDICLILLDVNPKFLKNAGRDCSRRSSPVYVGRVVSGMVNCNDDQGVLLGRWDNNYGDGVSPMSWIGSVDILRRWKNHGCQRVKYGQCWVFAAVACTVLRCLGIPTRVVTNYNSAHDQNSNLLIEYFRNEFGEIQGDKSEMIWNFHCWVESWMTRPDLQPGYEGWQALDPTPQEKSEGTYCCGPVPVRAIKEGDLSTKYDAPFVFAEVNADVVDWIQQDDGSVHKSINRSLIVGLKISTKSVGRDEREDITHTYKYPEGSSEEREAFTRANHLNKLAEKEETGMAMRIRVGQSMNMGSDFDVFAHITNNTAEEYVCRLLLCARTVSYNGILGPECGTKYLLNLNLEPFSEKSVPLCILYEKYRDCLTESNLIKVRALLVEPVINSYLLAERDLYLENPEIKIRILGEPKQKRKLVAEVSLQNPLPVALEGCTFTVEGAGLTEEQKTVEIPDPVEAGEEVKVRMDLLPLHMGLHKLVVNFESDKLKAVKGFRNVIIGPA", "assay": "(§1) Irreversible inhibition of human TG2 using AL5 as substrate by colorimetric assay"}, "[3]": {"biological_target": "T3, Protein-glutamine gamma-glutamyltransferase (Homo sapiens) (UniProt P21980)", "T3 sequence (whole entry)": "T2 sequence (P21980 whole entry)", "assay": "as §1"}, "[4]": {"biological_target": "T4, Protein-glutamine gamma-glutamyltransferase K (Homo sapiens) (UniProt P22735)", "T4 sequence (whole entry)": "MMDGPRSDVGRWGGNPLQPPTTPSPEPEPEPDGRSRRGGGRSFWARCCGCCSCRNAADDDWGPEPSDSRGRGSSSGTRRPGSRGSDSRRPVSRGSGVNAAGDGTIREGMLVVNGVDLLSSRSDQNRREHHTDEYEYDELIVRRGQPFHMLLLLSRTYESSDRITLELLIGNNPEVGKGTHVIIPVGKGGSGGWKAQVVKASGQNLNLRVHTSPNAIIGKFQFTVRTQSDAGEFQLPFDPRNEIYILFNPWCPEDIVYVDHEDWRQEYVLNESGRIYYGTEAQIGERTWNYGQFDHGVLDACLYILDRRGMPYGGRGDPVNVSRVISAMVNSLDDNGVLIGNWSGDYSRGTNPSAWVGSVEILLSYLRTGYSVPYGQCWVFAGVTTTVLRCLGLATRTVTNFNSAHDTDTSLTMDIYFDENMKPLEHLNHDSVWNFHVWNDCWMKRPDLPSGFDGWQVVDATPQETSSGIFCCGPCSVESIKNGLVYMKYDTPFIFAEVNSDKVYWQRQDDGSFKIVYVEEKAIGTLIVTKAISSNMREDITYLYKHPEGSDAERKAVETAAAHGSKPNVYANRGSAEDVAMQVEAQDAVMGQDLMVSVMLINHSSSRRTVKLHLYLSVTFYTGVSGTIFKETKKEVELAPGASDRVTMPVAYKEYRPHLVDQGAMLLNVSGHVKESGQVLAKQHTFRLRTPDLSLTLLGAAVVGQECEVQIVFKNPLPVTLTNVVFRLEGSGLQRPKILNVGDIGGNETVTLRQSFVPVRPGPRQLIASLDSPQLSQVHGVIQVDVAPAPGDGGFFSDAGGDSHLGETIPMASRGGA", "assay": "Inactivation of human TG1 using AL5 as substrate by colorimetric assay"}, "Cavia porcellus": {"species_on_record": "Cavia porcellus", "assay": "Ratio of Kinact to Ki for guinea pig liver TG2"}, "[5]": {"assay": "Antimigratory activity in human ECS cells at 20 uM treated for 2 hrs measured after 30 hrs by DAPI staining-based inverted fluorescent microscopy relative vehicle-treated control", "type": "functional"}, "[6]": {"assay": "Inhibition of guinea pig liver TG2 using Z-Gln-Gly/DMPDA as substrate preincubated for 3 mins followed by protein addition", "parameters": "species or system Cavia porcellus"}}}
{"compound": "C=CC(=O)NCCCC[C@H](NC(=O)OCc1ccccc1)C(=O)NCCOCCOCCNS(=O)(=O)c1cccc2c(N(C)C)cccc12", "values": [{"measurement": "K", "setting": "[1]", "result": 1.01, "unit": "×10⁻³ /min"}, {"measurement": "Ki", "setting": "[2]", "result": 33.9, "unit": "µM"}, {"measurement": "Kinact", "setting": "[3]", "result": 2.6, "unit": "min⁻¹"}, {"measurement": "K", "setting": "[4]", "result": 78.9, "unit": "×10⁻³ /min"}, {"measurement": "Ratio", "setting": "Cavia porcellus", "result": 1.4, "unit": "×10⁴ /M/min"}, {"measurement": "Activity", "setting": "[5]", "result": 50, "unit": "%"}, {"measurement": "Ki", "setting": "[6]", "result": 29, "unit": "µM"}]}
